Data: patent publication US9255094B2, “Pyrido[4,3-B]indoles and methods of use” (Medivation Technologies, Inc., priority 2009, dated 2016)

Assays:
[1] = molecular target: T1, human recombinant adrenergic α1D receptor (Homo sapiens, UniProt P25100); assay: Adrenergic α1D radioligand binding assay ([3H]Prozosin); settings: 0.6 nM [3H]Prozosin, HEK-293 cells; for inhibition at 0.1 µM: compound at 0.1 μM, read-out: Percent Inhibition of ligand binding, Adrenergic (0.1 μM) a1D; for inhibition at 1 µM: compound at 1 μM, read-out: Percent Inhibition of ligand binding, Adrenergic (1 μM) a1D
T1 construct: expressed in transfected cells; host or cells: human embryonic kidney (HEK-293) cells
T1 sequence (P25100 1-572): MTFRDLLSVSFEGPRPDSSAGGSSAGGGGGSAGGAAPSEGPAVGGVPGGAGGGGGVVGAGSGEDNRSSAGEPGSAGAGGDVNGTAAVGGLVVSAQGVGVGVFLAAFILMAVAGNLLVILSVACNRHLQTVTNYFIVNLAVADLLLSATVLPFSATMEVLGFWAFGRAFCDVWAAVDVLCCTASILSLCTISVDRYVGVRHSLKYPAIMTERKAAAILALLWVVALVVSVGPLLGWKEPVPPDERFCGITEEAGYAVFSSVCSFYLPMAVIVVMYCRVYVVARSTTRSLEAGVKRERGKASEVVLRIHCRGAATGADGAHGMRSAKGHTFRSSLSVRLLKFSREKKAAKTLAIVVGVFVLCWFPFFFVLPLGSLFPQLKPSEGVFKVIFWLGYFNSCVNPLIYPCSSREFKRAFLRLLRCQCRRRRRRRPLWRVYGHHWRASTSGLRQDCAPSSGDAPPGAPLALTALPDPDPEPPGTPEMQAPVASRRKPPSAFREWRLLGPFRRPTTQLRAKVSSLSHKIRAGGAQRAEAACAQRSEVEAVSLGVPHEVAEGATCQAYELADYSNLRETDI
Procedure: Compounds of invention were incubated with 0.6 nM [^3H]Prozosin for 60 min at 25° C. Non-specific binding was estimated in the presence of 10 μM phentolamine Receptor proteins were filtered and washed, the filters were then counted to determine [^3H]Prozosin specifically bound.

[2] = molecular target: T2, rat adrenergic α1A receptor (Rattus norvegicus, UniProt P43140); assay: Adrenergic α1A radioligand binding assay ([3H]Prozosin); settings: compound at 0.1 μM; 0.25 nM [3H]Prozosin; Wistar Rat submaxillary glands; read-out: Percent Inhibition of ligand binding, Adrenergic (0.1 μM) a1A
T2 construct: from tissue; host or cells: Wistar Rat submaxillary glands
T2 sequence (P43140 1-466): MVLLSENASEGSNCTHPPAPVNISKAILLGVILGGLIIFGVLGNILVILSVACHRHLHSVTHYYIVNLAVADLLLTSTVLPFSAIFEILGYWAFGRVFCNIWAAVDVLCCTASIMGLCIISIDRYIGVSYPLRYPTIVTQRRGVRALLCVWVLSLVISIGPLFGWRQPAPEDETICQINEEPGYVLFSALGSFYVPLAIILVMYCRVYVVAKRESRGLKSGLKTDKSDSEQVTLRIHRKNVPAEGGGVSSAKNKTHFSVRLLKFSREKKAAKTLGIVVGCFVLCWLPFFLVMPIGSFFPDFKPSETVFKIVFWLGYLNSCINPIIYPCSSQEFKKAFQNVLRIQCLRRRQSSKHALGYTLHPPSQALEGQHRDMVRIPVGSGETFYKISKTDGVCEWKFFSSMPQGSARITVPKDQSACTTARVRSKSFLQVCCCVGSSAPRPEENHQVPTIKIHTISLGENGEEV
Procedure: To evaluate in radioligand binding assays the activity of compounds of the invention, rat adrenergic α1A receptor obtained from Wistar Rat submaxillary glands (Michel, A. D. et al., Br. J. Pharmacol. 98:883, 1989) in a modified Tris-HCl buffer (50 mM Tris-HCl buffer, pH 7.4, 0.5 mM EDTA) is used. Compounds of the invention are incubated with 0.25 nM [^3H]Prozosin for 60 min at 25° C. Non-specific binding is estimated in the presence of 10 μM phentolamine. Receptor proteins are filtered and washed, the filters are then counted to determine [^3H]Prozosin specifically bound. Compounds of the invention are screened at 1 μM or lower, using 1% DMSO as vehicle. Compounds of the invention are tested in this biochemical assay and percent inhibition of specific binding is determined.

[3] = molecular target: T3, human recombinant adrenergic α2B receptor (Homo sapiens, UniProt P18089); assay: Adrenergic α2B radioligand binding assay ([3H]Rauwolscine); settings: 2.5 nM [3H]Rauwolscine, CHO-K1 cells; for inhibition at 0.1 µM: compound at 0.1 μM, read-out: Percent Inhibition of ligand binding, Adrenergic (0.1 μM) a2B; for inhibition at 1 µM: compound at 1 μM, read-out: Percent Inhibition of ligand binding, Adrenergic (1 μM) a2B
T3 construct: expressed in transfected cells; host or cells: Chinese hamster ovary (CHO-K1) cells
T3 sequence (P18089 1-450): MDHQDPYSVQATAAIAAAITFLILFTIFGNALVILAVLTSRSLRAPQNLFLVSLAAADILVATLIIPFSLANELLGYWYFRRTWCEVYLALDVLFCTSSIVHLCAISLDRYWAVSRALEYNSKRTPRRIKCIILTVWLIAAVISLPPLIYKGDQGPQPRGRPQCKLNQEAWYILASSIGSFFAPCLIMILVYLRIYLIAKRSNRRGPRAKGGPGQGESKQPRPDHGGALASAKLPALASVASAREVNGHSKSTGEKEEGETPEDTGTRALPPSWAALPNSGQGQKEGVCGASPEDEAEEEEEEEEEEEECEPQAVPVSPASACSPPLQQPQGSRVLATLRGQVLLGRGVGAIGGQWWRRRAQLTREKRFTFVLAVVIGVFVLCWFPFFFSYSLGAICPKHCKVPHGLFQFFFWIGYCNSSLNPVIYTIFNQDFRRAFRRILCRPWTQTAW
Procedure: To evaluate in radioligand binding assays the activity of compounds of the invention, human recombinant adrenergic α2B receptor expressed in Chinese hamster ovary (CHO-K1) cells (Uhlen S et al., Eur. J. Pharmacol. 343(1):93, 1998) in a modified Tris-HCl buffer (50 mM Tris-HCl, pH 7.4, 12.5 mM MgCl2, 1 mM EDTA, 0.2% BSA) was used. Compounds of the invention were incubated with 2.5 nM [^3H]Rauwolscine for 60 min at 25° C. Non-specific binding was estimated in the presence of 10 μM Prozosin. Receptor proteins were filtered and washed, the filters were then counted to determine [^3H]Rauwolscine specifically bound.

Row | Compound | inhibition at 0.1 µM [1] | inhibition at 0.1 µM [2] | inhibition at 0.1 µM [3] | inhibition at 1 µM [1] | inhibition at 1 µM [3]
1 | CC[C@@](O)(Cn1c2c(c3cc(C)ccc31)CN(C)CC2)c1ccncc1 [Compound 1-62, (S)-1-(2,8-Dimethyl-3,4-dihydro-1H-pyrido[4,3-b]indol-5(2H)-yl)-2-(pyridine-4-yl)butan-2-ol] | 6% | 10% | – | – | –
2 | CCCC[C@@](O)(Cn1c2c(c3cc(Cl)ccc31)CN(C)CC2)c1ccc(F)cc1 [Compound 1-67, (S)-1-(8-chloro-2-methyl-3,4-dihydro-1H-pyrido[4,3-b]indol-5(2H)-yl)-2-(4-fluorophenyl)hexan-2-ol] | – | 2% | -3% | – | –
3 | Cc1ccc2c(c1)c1c(n2CC(=O)c2ccc(F)cc2)CCN(C)C1 [Compound 1-39, 2-(2,8-dimethyl-3,4-dihydro-1H-pyrido[4,3-b]indol-5(2H)-yl)-1-(4-fluorophenyl)ethanone] | – | – | – | 57% | 92%
4 | CN1CCc2c(c3cc(Cl)ccc3n2CC(=O)c2ccc(F)cc2)C1 [Compound 1-37, 2-(8-chloro-2-methyl-3,4-dihydro-1H-pyrido[4,3-b]indol-5(2H)-yl)-1-(4-fluorophenyl)ethanone] | – | – | – | 56% | 87%
5 | Cc1ccc2c(c1)c1c(n2CC(O)c2ccncc2)CCN(C)C1 (stereo not shown) [Compound 1-8, 2-(2,8-dimethyl-3,4-dihydro-1H-pyrido[4,3-b]indol-5(2H)-yl)-1-(pyridin-4-yl)ethanol] | – | 9% | – | – | –
6 | CC[C@@](O)(Cn1c2c(c3cc(C)ccc31)CN(C)CC2)c1ccc(F)cc1 [Compound 1-66, (S)-1-(2,8-dimethyl-3,4-dihydro-1H-pyrido[4,3-b]indol-5(2H)-yl)-2-(4-fluorophenyl)butan-2-ol] | – | -1% | – | – | –
7 | Cc1ccc2c(c1)c1c(n2CCc2ccc(C)nc2)CCN(CCC#N)C1 [Compound 1-34, 3-(8-methyl-5-(2-(6-methylpyridin-3-yl)ethyl)-3,4-dihydro-1H-pyrido[4,3-b]indol-2(5H)-yl)propanenitrile] | – | – | – | 6% | 23%
8 | CN1CCc2c(c3cc(Cl)ccc3n2CC(=O)c2ccccc2)C1 [Compound 1-36, 2-(8-chloro-2-methyl-3,4-dihydro-1H-pyrido[4,3-b]indol-5(2H)-yl)-1-phenylethanone] | – | – | – | 52% | 92%
9 | Cc1ccc2c(c1)c1c(n2CC(C)(C)c2ccncc2)CCN(C)C1 [Compound 1-49, 2,8-dimethyl-5-(2-methyl-2-(pyridin-4-yl)propyl)-2,3,4,5-tetrahydro-1H-pyrido[4,3-b]indole] | – | 13% | – | – | –
10 | Cc1ccc2c(c1)c1c(n2CCc2ccc(C)nc2)CCN(CC(F)(F)F)C1 [Compound 1-65, 8-methyl-5-(2-(6-methylpyridin-3-yl)ethyl)-2-(2,2,2-trifluoroethyl)-2,3,4,5-tetrahydro-1H-pyrido[4,3-b]indole] | 4% | -10% | -9% | – | –
11 | CCCC[C@](O)(Cn1c2c(c3cc(Cl)ccc31)CN(C)CC2)c1ccc(F)cc1 [Compound 1-61, (R)-1-(8-Chloro-2-methyl-3,4-dihydro-1H-pyrido[4,3-b]indol-5(2H)-yl)-2-(4-fluorophenyl)hexan-2-ol] | 14% | 1% | 2% | – | –
12 | Cc1ccc2c(c1)c1c(n2CCc2ccc(CCCN)nc2)CCN(C)C1 [Compound 1-40, 3-(5-(2-(2,8-dimethyl-3,4-dihydro-1H-pyrido[4,3-b]indol-5(2H)-yl)ethyl)pyridin-2-yl)propan-1-amine] | – | – | – | 53% | 63%
13 | CN1CCc2c(c3cc(Cl)c(Cl)cc3n2CC(C)(O)c2ccncc2)C1 (stereo not shown) [Compound 1-17, 1-(7,8-dichloro-2-methyl-3,4-dihydro-1H-pyrido[4,3-b]indol-5(2H)-yl)-2-(pyridin-4-yl)propan-2-ol] | – | 0% | 64% | – | –
14 | Cc1ccc2c(c1)c1c(n2CC(=O)c2ccccc2)CCN(C)C1 [Compound 1-35, 2-(2,8-dimethyl-3,4-dihydro-1H-pyrido[4,3-b]indol-5(2H)-yl)-1-phenylethanone] | – | – | – | 18% | 59%
15 | CN1CCc2c(c3cc(Cl)ccc3n2CC(=O)c2ccc(Cl)cc2)C1 [Compound 1-38, 2-(8-chloro-2-methyl-3,4-dihydro-1H-pyrido[4,3-b]indol-5(2H)-yl)-1-(4-chlorophenyl)ethanone] | – | – | – | 56% | 92%
16 | Cc1ccc2c(c1)c1c(n2CC(C)c2ccncc2)CCN(C)C1 (stereo not shown) [Compound 1-46, 2,8-dimethyl-5-(2-(pyridin-4-yl)propyl)-2,3,4,5-tetrahydro-1H-pyrido[4,3-b]indole] | – | 12% | – | – | –
17 | CN1CCc2c(c3cc(Cl)ccc3n2CC(O)c2ccncc2)C1 (stereo not shown) [Compound 1-11, 2-(8-chloro-2-methyl-3,4-dihydro-1H-pyrido[4,3-b]indol-5(2H)-yl)-1-(pyridin-4-yl)ethanol] | – | 12% | – | – | –
18 | Cc1ccc2c(c1)c1c(n2CCc2ccc(C)nc2)CCN(CCCO)C1 [Compound 1-42, 3-(8-methyl-5-(2-(6-methylpyridin-3-yl)ethyl)-3,4-dihydro-1H-pyrido[4,3-b]indole-2(5H)-yl)propan-1-ol] | – | – | – | 55% | 39%
19 | Cc1ccc2c(c1)c1c(n2CC(C)(O)c2ccc(O)cc2)CCN(C)C1 (stereo not shown) [Compound 1-15, 4-(1-(2,8-dimethyl-3,4-dihydro-1H-pyrido[4,3-b]indol-5(2H)-yl)-2-hydroxypropan-2-yl)phenol] | – | 36% | 103% | – | –
20 | Cc1ccc2c(c1)c1c(n2CCc2ccc(C(F)(F)F)nc2)CCNC1 [Compound 1-41, 8-methyl-5-(2-(6-(trifluoromethyl)pyridin-3-yl)ethyl)-2,3,4,5-tetrahydro-1H-pyrido[4,3-b]indole] | – | – | – | 74% | 89%
